The values below come from article PMC2364081, “Antagonists of retinoic acid receptors (RARs) are potent growth inhibitors of prostate carcinoma cells” (British Journal of Cancer, 2001).

One assay deals with LNCaP ITS+ cells. The assay can be described thus: Plate colony formation (clonal proliferation) assay, serum-free (ITS+)-grown LNCaP. In kind it is cell-based, human. An excerpt: (§1) Prostate cancer is one of the most common cancers in European and American males and has a high mortality rate (Landis et al, 1998; Rosenthal, 1998). Early disease is managed conservatively in Europe although in selected patients surgery is curative. In advanced disease, androgen ablation can produce symptomatic improvement, but the tumour often re-emerges in an androgen- independent and incurable form. One proposed treatment for androgen-independent prostate carcinoma is differentiation ther- apy, in which agents such as all-trans-retinoic acid (ATRA), 9-cis- retinoic acid and 1, 25-dihydroxyvitamin D3 (D3 ) are used to induce growth arrest, differentiation and sometimes apoptosis of the tumour cells (Liang et al, 1999; de Vos et al, 1997; Skowronski et al, 1994; Hedlund et al, 1997). ATRA and synthetic analogues exert their biological effects by binding to two families of retinoid receptors, […]. These are ligand-dependent transcription factors of the steroid/thyroid hormone nuclear receptor superfamily (Chambon 1994; Boehm et al, 1995). Activated RARs bind to retinoic acid-responsive elements (RAREs) in the promoters of genes and thus regulate gene expression. They also antagonize the activity of the tran- scription factor AP1 and thereby down-regulate the expression of some AP1-activated genes (Nagpal et al, 1995). One approach to unravelling the contributions of RAR sub-types to these actions has been the development of synthetic retinoids with selective activities at individual RARs and RXRs. For example, the diaryl- acetylenic retinoids allow separation of transactivation and AP1 antagonism functions at RAR (Nagpal et al, 1995). Recently, compounds that are selective for particular RAR sub-types have been synthesized: these include both agonists and antagonists (Chandraratna, 1995; Teng et al, 1999; Johnson et al, 1999). The functional selectivity of these compounds may open the way to achieving differentiation or apoptosis of tumour cells with minimal systemic side effects (Chandraratna, 1995). Cell lines that are commonly used in the evaluation of investiga- tional agents for prostate cancer include LNCaP, DU-145 and PC- 3. […] These lines are relatively insensitive to growth inhibition and induction of apoptosis by ATRA and by synthetic agonists. […] Fenretinide (4HPR) induces apoptosis of LNCaP and of PC-3 cells at 1-5 M and 25 µM, respectively (Pienta et al, 1993; Heish and Wu, 1997). Pfahl and colleagues examined the growth inhibitory effects of a panel of receptor-selective retinoids against DU145 and PC-3 cells and achieved complete growth inhibition and induction of apoptosis between 1 M and 10 M (Lu et al, 1999). […] Antagonists of retinoic acid receptors (RARs) are potent growth inhibitors of prostate carcinoma cells LA Hammond1 , CH Van Krinks2 , J Durham2 , SE Tomkins2 , RD Burnett3 , EL Jones1 , RAS Chandraratna3 and G Brown2 Divisions of 1 Cancer Studies and of 2 Immunity and Infection, University of Birmingham Medical School, Edgbaston, Birmingham B15 2TT, UK and 3 Retinoid Research, Allergan Inc., Irvine, California, USA Summary Novel synthetic antagonists of retinoic acid receptors (RARs) have been developed. To avoid interference by serum retinoids when testing these compounds, we established serum-free grown sub-lines (>3 years) of the prostate carcinoma lines LNCaP, PC3 and DU145. […] A component(s) of serum and of LNCaP-conditioned medium diminishes the activity of antagonists: this factor is not the most likely candidates IGF-1 and EGF. In vitro studies of RAR antagonists together with data from RAR-null mice lead to the hypothesis that RAR-regulated gene transcription is necessary for the survival and maintenance of prostate epithelium. […]

Assay [1] has as its target T1, RARα (Homo sapiens, UniProt P10276).
T1 sequence (P10276 1-462): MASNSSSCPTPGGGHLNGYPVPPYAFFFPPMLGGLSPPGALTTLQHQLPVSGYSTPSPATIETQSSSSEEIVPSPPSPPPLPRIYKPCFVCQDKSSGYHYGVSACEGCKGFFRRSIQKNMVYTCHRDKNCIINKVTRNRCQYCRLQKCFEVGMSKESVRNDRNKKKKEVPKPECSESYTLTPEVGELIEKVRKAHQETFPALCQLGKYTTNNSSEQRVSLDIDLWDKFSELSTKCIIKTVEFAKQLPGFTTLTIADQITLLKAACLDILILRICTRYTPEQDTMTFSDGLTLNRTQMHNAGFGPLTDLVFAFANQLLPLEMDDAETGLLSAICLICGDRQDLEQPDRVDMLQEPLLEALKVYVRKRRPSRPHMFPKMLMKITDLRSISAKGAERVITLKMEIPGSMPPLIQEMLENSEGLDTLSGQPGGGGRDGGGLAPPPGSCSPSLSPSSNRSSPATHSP
The assay can be described thus: Binding to baculovirus-expressed RARα. The note with it: baculovirus-expressed receptor. More on the design: made in house.
Description: as §1

Assay [2] concerns the target T2, RARβ (Homo sapiens, UniProt P10826).
T2 sequence (P10826 1-455): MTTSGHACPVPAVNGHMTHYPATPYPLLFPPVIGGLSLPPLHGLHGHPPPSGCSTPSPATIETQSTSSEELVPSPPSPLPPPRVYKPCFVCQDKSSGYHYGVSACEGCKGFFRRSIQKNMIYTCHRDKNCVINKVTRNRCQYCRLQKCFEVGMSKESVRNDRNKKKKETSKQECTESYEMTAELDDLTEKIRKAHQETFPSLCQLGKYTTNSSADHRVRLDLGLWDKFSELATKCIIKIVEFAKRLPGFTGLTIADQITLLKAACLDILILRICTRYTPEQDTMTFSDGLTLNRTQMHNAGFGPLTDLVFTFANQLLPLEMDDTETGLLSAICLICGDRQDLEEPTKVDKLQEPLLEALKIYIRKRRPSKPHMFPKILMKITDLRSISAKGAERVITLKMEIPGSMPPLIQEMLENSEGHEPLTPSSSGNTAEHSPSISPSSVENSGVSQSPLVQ
The assay can be described thus: Binding to baculovirus-expressed RARβ. As to conditions: baculovirus-expressed receptor. More on the design: made in house.
Description: as §1

The target of assay [3] is T3, RARγ (Homo sapiens, UniProt P13631).
T3 sequence (P13631 1-454): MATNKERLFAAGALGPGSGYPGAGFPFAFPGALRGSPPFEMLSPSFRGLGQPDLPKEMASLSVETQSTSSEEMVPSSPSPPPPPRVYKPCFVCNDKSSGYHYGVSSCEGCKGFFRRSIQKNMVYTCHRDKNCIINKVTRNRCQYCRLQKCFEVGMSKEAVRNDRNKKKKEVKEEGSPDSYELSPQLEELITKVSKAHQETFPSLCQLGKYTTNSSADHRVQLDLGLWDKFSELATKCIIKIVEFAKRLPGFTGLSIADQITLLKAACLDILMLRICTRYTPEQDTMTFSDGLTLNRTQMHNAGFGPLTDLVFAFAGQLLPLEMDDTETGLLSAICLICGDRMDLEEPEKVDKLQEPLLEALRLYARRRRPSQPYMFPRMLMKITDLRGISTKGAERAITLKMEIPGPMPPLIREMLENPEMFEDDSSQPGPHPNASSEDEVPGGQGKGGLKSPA
Put plainly: Binding to baculovirus-expressed RARγ. More on the design: made in house. The note with it: baculovirus-expressed receptor.
Description: as §1

For assay [4], the target named is T1, RARα. The assay can be described thus: Transactivation by RARα in doubly transfected CV-1 cells (MTV-TREp-LUC reporter). In kind it is cell-based. Also noted: expressed in transfected cells; host or cells: CV-1 cells. From the text:
(§2) Prostate cancer is one of the most common cancers in European and American males and has a high mortality rate (Landis et al, 1998; Rosenthal, 1998). Early disease is managed conservatively in Europe although in selected patients surgery is curative. In advanced disease, androgen ablation can produce symptomatic improvement, but the tumour often re-emerges in an androgen- independent and incurable form. One proposed treatment for androgen-independent prostate carcinoma is differentiation ther- apy, in which agents such as all-trans-retinoic acid (ATRA), 9-cis- retinoic acid and 1, 25-dihydroxyvitamin D3 (D3 ) are used to induce growth arrest, differentiation and sometimes apoptosis of the tumour cells (Liang et al, 1999; de Vos et al, 1997; Skowronski et al, 1994; Hedlund et al, 1997). ATRA and synthetic analogues exert their biological effects by binding to two families of retinoid receptors, the RARs (RAR, RAR and RAR) and the RXRs (RXR, RXR and RXR). These are ligand-dependent transcription factors of the steroid/thyroid hormone nuclear receptor superfamily (Chambon 1994; Boehm et al, 1995). Activated RARs bind to retinoic acid-responsive elements (RAREs) in the promoters of genes and thus regulate gene expression. They also antagonize the activity of the tran- scription factor AP1 and thereby down-regulate the expression of some AP1-activated genes (Nagpal et al, 1995). One approach to unravelling the contributions of RAR sub-types to these actions has been the development of synthetic retinoids with selective activities at individual RARs and RXRs. For example, the diaryl- acetylenic retinoids allow separation of transactivation and AP1 antagonism functions at RAR (Nagpal et al, 1995). Recently, compounds that are selective for particular RAR sub-types have been synthesized: these include both agonists and antagonists (Chandraratna, 1995; Teng et al, 1999; Johnson et al, 1999). The functional selectivity of these compounds may open the way to achieving differentiation or apoptosis of tumour cells with minimal systemic side effects (Chandraratna, 1995). […]

Assay [5] deals with T2, RARβ. Put plainly: Transactivation by RARβ in doubly transfected CV-1 cells (MTV-TREp-LUC reporter). Format: cell-based. Also noted: expressed in transfected cells; host or cells: CV-1 cells; key to EC50 transactivation RARβ: NA: inactive; WA: weak partial agonist.
Description: as §2

Assay [6] addresses T3, RARγ. Put plainly: Transactivation by RARγ in doubly transfected CV-1 cells (MTV-TREp-LUC reporter). Also noted: expressed in transfected cells; host or cells: CV-1 cells; key to EC50 transactivation RARγ: NA: inactive; WA: weak partial agonist. In kind it is cell-based.
Description: as §2, with “1995).” for “1995). One approach to unravelling the contributions of RAR sub-types to these actions has been the development of synthetic retinoids with selective activities at individual RARs and RXRs. For example, the diaryl- acetylenic retinoids allow separation of transactivation and AP1 antagonism functions at RAR (Nagpal et al, 1995). Recently, compounds that are selective for particular RAR sub-types have been synthesized: these include both agonists and antagonists (Chandraratna, 1995; Teng et al, 1999; Johnson et al, 1999). The functional selectivity of these compounds may open the way to achieving differentiation or apoptosis of tumour cells with minimal systemic side effects (Chandraratna, 1995).”

Consider “EGF: Epidermal growth factor (R & D, Abingdon, UK) (NSDSECPLSHDGYCLHDGVCMYIEALDKYACNCVVGYIGERCQYRDLKWWELR; UniProt P01133 971-1023, looked up)”, for which the “reversal of the inhibition of colony formation by 100 nM AGN194310” value in the assay with LNCaP ITS+ cells (EGF at 1, 10 and 20 ng/ml) is recorded as “did not reverse”.
For orientation: Kd means the constant that tells how readily two partners part at equilibrium. What is called EC50 is the concentration that produces a half-maximal response. As for `CC1(C)CCSc2ccc(C#Cc3ccc(C(=O)O)cn3)cc21` [AGN190299], the figures for the Kd on RARα [1], at RARβ [2] and at RARγ [3] were 0.616 µM, 0.041 µM and 0.057 µM, respectively. Further, the results for the EC50 on RARα [4], at RARβ [5] and on RARγ [6] were > 1 µM, 0.018 µM and 0.042 µM, respectively.
On to `CC1(C)CCC(C)(C)c2cc(C(=O)Nc3cc(F)c(C(=O)O)c(F)c3)c(O)cc21` [AGN194078], for which the dissociation constant Kd on RARα [1] was 0.004 µM; on RARβ [2], > 5 µM; on RARγ [3], > 5 µM. Besides, the concentration for a half-maximal effect (EC50) on RARα [4] stood at 0.14 µM. The “EC50 transactivation RARβ” value at RARβ [5] is “WA”.
Turning to `C/C(=C\c1ccc(C(=O)O)cc1)c1ccc2c(c1)C(C)(C)CCC2(C)C` [TTNPB, reference compound], the entries for the “inhibition of colony formation” value in the assay on LNCaP ITS+ cells (TTNPB alone at 10 -6 M) and with LNCaP ITS+ cells (TTNPB alone at 10 -7 M) were > 90% and ~ 10%, respectively.
Consider `CC(C)N1CCC(C)(C)c2cc(C(=O)Nc3ccc(C(=O)O)c(F)c3)c(O)cc21` [AGN195153], for which the Kd at RARα [1] is 0.04 µM; at RARβ [2] it was > 5 µM; on RARγ [3], > 5 µM. The compound also had a concentration for a half-maximal effect (EC50) at RARα [4] of 0.13 µM. Also, on RARβ [5], the “EC50 transactivation RARβ” value was “WA”. For the same compound, the “EC50 transactivation RARγ” value on RARγ [6] was “WA”.
